{"source": "patent US20260256728A1", "about": "“TREATMENT FOR ASYMPTOMATIC STARGARDT DISEASE PATIENTS” (priority 2024, published 2026)", "key": {"[1]": {"system": "atrophic retinal lesions in Stargardt disease patients", "test": "TEASE-1 growth rate of atrophic retinal lesions by fundus autofluorescence imaging", "format": "in vivo, human", "design": "relative slower growth rate of atrophic retinal lesions versus control / Percentage Slowing of Atrophic Retinal Lesion Growth Rate: concentration or dose not given beside the values", "method": "The Tolerability and Effects of gildeuretinol acetate in Stargardt Disease (Clinical trial group 1, also known as TEASE-1) was a 24-month, multicenter, double-masked, placebo-controlled trial designed to evaluate the efficacy and safety of daily oral gildeuretinol acetate in slowing the growth of atrophic retinal lesions in Stargardt disease patients. The trial was conducted at multiple sites in the United States (NCT02402660).\nPatients 12 years or older, clinically diagnosed with Stargardt disease, with at least one ABCA4 mutation, at least one eye presenting with well-demarcated areas of reduced fundus autofluorescence including retinal atrophic lesions, and with any visual acuity, were enrolled.\nPatients were randomized to gildeuretinol acetate 14 mg capsules, gildeuretinol acetate 24 mg capsules, or placebo capsules, to be taken once daily for one year. After one year, 50% of randomly selected patients receiving placebo were crossed over in a 1:1 ratio to gildeuretinol acetate 14 mg capsules or gildeuretinol acetate 24 mg capsules for a second year.\nDeidentified retinal images of patients not enrolled in the trial were included as a natural history cohort. This natural history cohort comprised patients diagnosed with Stargardt disease of any age, with two or more longitudinal fundus autofluorescence images taken at least four months apart over a maximum period of 2.5 years.\n[…] retinal imaging comparing gildeuretinol acetate versus the untreated arm ([…]). Only well-delineated and homogeneous retinal atrophic lesions ≥0.2 mm^2 with a summed area ≥0.5 mm^2 were included in the primary analysis.\nThe primary endpoint analysis used a linear mixed-effect model (LMEM) with repeated measures, conferring a higher power to detect smaller effects. All observed data, including both eyes, were utilized. Treatment duration was computed as a continuous measure for each visit based on years since randomization. Adjustments for baseline retinal atrophy used the baseline atrophic retinal lesion size as a fixed effect in the LMEM. Additional fixed effects included treatment arm, treatment duration, and interaction between the treatment arm and treatment duration. Random effects included patient, eye, grader to adjust for correlation between eyes within a patient, graders' assessment of an eye, and observations of the same eye over time. A random effect slope term was added to the effect of treatment duration. Patients who crossed over to gildeuretinol acetate after year one were included in the untreated arm from baseline to year one, then in the gildeuretinol acetate arm from […] upon crossing over to gildeuretinol acetate. The full analysis set (FAS) comprised all randomized patients who received at least one dose of the study drug.\n[…] All available data between 0 and 24 months was used to compute the slope of each segment. The primary efficacy endpoint was the slope of the second segment. No constraints were imposed on the Y-intercept. All growth rates were calculated on a per-year basis.\nNo imputations were made for missing data because the LMEM yields valid inferences under the assumption of a missing-at-random mechanism. The two-sided P-value of the primary efficacy endpoint was calculated using Kenward-Roger's method for handling denominator degrees of freedom and small samples. The goodness of fit of the linear mixed-effect model was provided as R-squared (R^2). Analyses were conducted in R (R Core Team, 2020). Prespecified, unadjusted sensitivity analyses of the primary efficacy endpoint included growth rates of untransformed areas of retinal atrophy and growth rates using a single-slope from baseline until the last available visit. Post-hoc unadjusted analyses were performed to evaluate the potential contribution of patient characteristics."}, "[2]": {"test": "TEASE-3 plasma gildeuretinol", "format": "in vivo, human", "conditions": "14 mg daily", "method": "(§1) The tolerability and effects of ALK-001 (gildeuretinol acetate) in Stargardt Disease (Clinical trial group 3, also known as TEASE-3) study was an open-label, multicenter, case control study designed to evaluate the efficacy and safety of gildeuretinol acetate on the progression of Stargardt disease in asymptomatic individuals. The trial was conducted at multiple sites in the United States.\n(§2) To assess the safety and efficacy of gildeuretinol acetate in preventing vision loss in asymptomatic individuals, gildeuretinol acetate 14 mg capsules were administered to individuals showing early signs of retinal damage while maintaining approximately 20/20 vision and no subjective loss of vision. […] Based on the above family history and clinical observations, the asymptomatic individuals were likely to develop retinal lesions, loss of photoreceptors, drops in retinal sensitivity, loss of visual acuity, indicating the onset of symptoms, i.e. a progression to the symptomatic phase, including vision loss within two years, mirroring the progression observed in their older siblings.\n(§3) Patients received gildeuretinol acetate 14 mg capsules, to be taken orally once daily. Trial visits occurred every 6 months approximately following screening and treatment start visits."}, "[3]": {"system": "asymptomatic Stargardt disease patients", "test": "TEASE-3 best-corrected visual acuity (BCVA)", "format": "in vivo, human", "method": "as §1, §2\nTesting asymptomatic individuals in the absence of a potential intervention is, therefore, controversial. All asymptomatic Stargardt disease patients were thus administered gildeuretinol acetate. Specific dose levels were not disclosed to the patients. Disease progression was compared to the symptomatic siblings with identical genetic mutations when aged-matched who had not received gildeuretinol acetate.\nas §3\nDisease progression was monitored by best-corrected visual acuity (BCVA) reported in number of Early Treatment Diabetic Retinopathy Study (ETDRS) letters, fundus autofluorescence (FAF) imaging, loss of photoreceptors (as measured by the ellipsoid zone band loss) by optical coherence tomography (OCT) and retinal sensitivity by microperimetry.\nMeasurements from the left and right eye for each patient were averaged for each visit to produce a single statistical unit for both eyes. For segmented linear regressions, knot times were selected so that three visits were included in the first segment."}, "[4]": {"system": "asymptomatic Stargardt disease patients", "test": "TEASE-3 retinal sensitivity by fundus-tracking microperimetry", "format": "in vivo, human", "method": "FIG. 4 is a graph showing mean retinal sensitivity (dB) over time in three asymptomatic Stargardt disease patients taking gildeuretinol acetate 14 mg daily. Lines show mean retinal sensitivity of both eyes. Lines are piecewise linear regressions with a knot time of 12 months. Each symbol represents a retinal sensitivity measurement for each eye. Patient 1 retinal sensitivity was measured with a Nidek MP-1 (Nidek, Gamagori, Japan). Patients 2 and 3 retinal sensitivity was measured with the Center Vue Macular Integrity Assessment or MAIA (CenterVue, Padova, Italy).\nas §1\nPatients received gildeuretinol acetate 14 mg capsules, to be taken orally once daily. […]\nDisease progression was monitored by best-corrected visual acuity (BCVA) reported in number of Early Treatment Diabetic Retinopathy Study (ETDRS) letters, fundus autofluorescence (FAF) imaging, loss of photoreceptors (as measured by the ellipsoid zone band loss) by optical coherence tomography (OCT) and retinal sensitivity by microperimetry. […]"}, "[5]": {"conditions": "in vivo"}}, "note": "Entries after “also recorded” stand apart in the source; their conditions may differ."}
{"smiles": "[2H]C([2H])([2H])C(/C=C/C=C(C)/C=C/C1=C(C)CCCC1(C)C)=C\\COC(C)=O", "note": "[gildeuretinol acetate]", "values": [{"measurement": "growth rate of atrophic retinal lesions (square root area)", "setting": "[1]; 14 to 24 mg daily, slope 6 to 24 months, 34 patients", "value": 0.19, "unit": "mm/year"}, {"measurement": "relative slower growth rate of atrophic retinal lesions versus control", "setting": "[1]; P<0.001, R^2=0.9996", "value": 21, "unit": "%"}, {"measurement": "difference in growth rate of atrophic retinal lesions versus control", "setting": "[1]; control 0.24 mm/year (placebo + natural history), 95% CI 0.03 to 0.07", "value": 0.05, "unit": "mm/year"}, {"measurement": "prespecified primary efficacy endpoint (mean growth rate of atrophic retinal lesions vs placebo and natural history)", "setting": "[1]; in vivo", "value": "met its prespecified primary efficacy endpoint"}, {"measurement": "effect on expansion of retinal atrophic lesions / retinal degeneration", "setting": "[1]; symptomatic Stargardt disease patients, once daily up to 24 months", "value": "slowed the expansion of retinal atrophic lesions; also recorded: slows retinal degeneration"}, {"measurement": "replacement of plasma vitamin A sustained throughout the treatment period", "setting": "[2]", "value": "Over 80%"}, {"measurement": "replacement of plasma vitamin A (retinol) with gildeuretinol", "setting": "[2]; after the first two months, all three participants", "value": 80, "unit": "%"}, {"measurement": "effect on vision loss", "setting": "[3]; asymptomatic Stargardt disease patients, 14 mg daily, up to four years", "value": "effectively prevented vision loss and further retinal damage; also recorded: completely prevented vision loss; also recorded: arrested loss of vision and retinal pathology"}, {"measurement": "average BCVA improvement versus untreated siblings, lines of vision on the ETDRS eyechart", "setting": "[3]; in vivo", "value": "four"}, {"measurement": "visual acuity (Snellen)", "setting": "[3]; treated asymptomatic patients", "value": "~ 20/20 and approximately 20/20"}, {"measurement": "BCVA", "setting": "[3]; treated siblings, 14 mg daily, 2-4 years", "value": "88±4", "unit": "ETDRS letters"}, {"measurement": "average BCVA improvement versus untreated age-matched siblings", "setting": "[3]; untreated siblings 66±10 ETDRS letters", "value": "22±13", "unit": "letters"}, {"measurement": "change of mean retinal sensitivity", "setting": "[4]; first year of treatment", "value": "−3.1±1.5", "unit": "dB/year"}, {"measurement": "average rate of retinal sensitivity improvement", "setting": "[4]; following years of treatment", "value": "+0.93±0.7 dB/year"}, {"measurement": "Patients experiencing event (%): Ear infection", "setting": "[5]", "value": "1 (10.0)"}, {"measurement": "Patients experiencing event (%): Gastroenteritis viral", "setting": "[5]", "value": 0}, {"measurement": "Patients experiencing event (%): Herpes zoster", "setting": "[5]", "value": 0}, {"measurement": "Patients experiencing event (%): Skin infection", "setting": "[5]", "value": 0}, {"measurement": "Patients experiencing event (%): Upper respiratory tract infection", "setting": "[5]", "value": "2 (20.0)"}, {"measurement": "changes in visual acuity", "setting": "[5]", "value": "No changes in visual acuity were observed"}, {"measurement": "discontinuation of treatment due to side effects", "setting": "[5]", "value": "no patient discontinued treatment due to side effects"}, {"measurement": "serious adverse events associated with treatment", "setting": "[5]", "value": "No serious adverse events"}, {"measurement": "severity of adverse events", "setting": "[5]", "value": "mild or moderate"}]}
